Patent US20250320194A1, “PHARMACEUTICALLY ACCEPTABLE SALT AND CRYSTAL FORM OF FUSED PYRIDINE RING DERIVATIVE AND PREPARATION METHOD THEREFOR” (Jiangsu Hengrui Pharmaceuticals Co., Ltd., priority 2021, published 2025)

Columns and labels:
[1] = Long-term/accelerated stability; settings: for physical and chemical stability (conclusion): long-term accelerated stability conditions for 6 months
[2] = Stability under influencing factors (high temperature, high humidity, open, 30 days)
[3] = Hygroscopicity of salt crystal forms (DVS, 25° C.); format: physicochemical; settings: for Hygroscopicity 0.0% RH-95.0% RH / Hygroscopicity 20.0% RH-80.0% RH: DVS, 25° C.; for Crystal form: after DVS
Description: The test adopts SMS DVS Advantage, at 25° C., with a humidity range of 0 to 95% and a step of 10%. The judgment standard is that the dM/dT of each gradient mass change is less than 0.002%, TMAX is 360 minutes, and the cycle is two times. • 5. Cation chromatography • Instrument model: DIONEX AQUION ion chromatograph, USA • Detection method: conductivity; separation column: IonPac CS16-CG16 • Eluent: MSA 20Mm • Flow rate: 1.0 ml/min • 6. Anion chromatography • Instrument model: DIONEX INTEGRION HPIC ion chromatograph, USA • Detection method: conductivity; separation column: DionexIonPac™-AS11-HC • Eluent: EGC-500-KOH • Flow rate: 1.5 ml/min
Using Surface Measurement Systems advantage, at 25° C., the humidity starts from 50%, the humidity range is 0% to 95%, the step is 10%. The judgment standard was that the dM/dT of each gradient mass change is less than 0.002%, TMAX360 min, and the cycle was two times. The hygroscopicity of different salt crystal forms of the compound of formula I was investigated respectively.

CC(C)(C#Cc1nc(C(Cc2cc(F)cc(F)c2)NC(=O)Cn2nc(C(F)(F)F)c3c2C(F)(F)C2CC32)c(-c2ccc(Cl)c3c(NS(C)(=O)=O)nn(CC(F)(F)F)c23)c2c1CCC2)S(C)(=O)=O.O=S(=O)(O)O (centres unmarked) [Crystal form A of hydrosulfate]
Purity % ([1]; 4° C., 1 month): 99.09%
Purity % ([1]; 4° C., 2 months): 99.08%
Purity % ([1]; 4° C., 3 months): 99.08%
Purity % ([1]; 4° C., 6 months): 99.09%
Purity % ([1]; 4° C., Start): 99.09%
Purity % ([1]; 25° C., 60% RH, 1 month): 99.01%
Purity % ([1]; 25° C., 60% RH, 2 months): 98.99%
Purity % ([1]; 25° C., 60% RH, 3 months): 99.03%
Purity % ([1]; 25° C., 60% RH, 6 months): 98.91%
Purity % ([1]; 25° C., 60% RH, Start): 99.09%
Purity % ([1]; 40° C., 75% RH, 1 month): 98.83%
Purity % ([1]; 40° C., 75% RH, 2 months): 98.99%
Purity % ([1]; 40° C., 75% RH, 3 months): 98.98%
Purity % ([1]; 40° C., 75% RH, 6 months): 98.76%
Purity % ([1]; 40° C., 75% RH, Start): 99.09%
physical and chemical stability (conclusion) [1]: good physical and chemical stability
physical stability (conclusion) ([2]; 40° C., 60° C., 7500 RH and 92.5% RH, crystal form not transformed): good physical stability
chemical stability (conclusion) ([2]; 40° C., 7500 RH and 92.5%0 RH, not at high temperature (60° C.)): good chemical stability
Color, properties ([2]; 40° C., 5 days): White solid
Crystal form ([2]; 40° C., 5 days): Unchanged
Purity % ([2]; 40° C., 5 days): 99.06%
Color, properties ([2]; 40° C., 10 days): White solid
Crystal form ([2]; 40° C., 10 days): Unchanged
Purity % ([2]; 40° C., 10 days): 99.01%
Color, properties ([2]; 40° C., 30 days): White solid
Crystal form ([2]; 40° C., 30 days): Unchanged
Purity % ([2]; 40° C., 30 days): 99.03%
Color, properties ([2]; 60° C., 5 days): White solid
Crystal form ([2]; 60° C., 5 days): Unchanged
Purity % ([2]; 60° C., 5 days): 96.46%
Color, properties ([2]; 60° C., 10 days): White solid
Crystal form ([2]; 60° C., 10 days): Unchanged
Purity % ([2]; 60° C., 10 days): 96.22%
Color, properties ([2]; 60° C., 30 days): White solid
Crystal form ([2]; 60° C., 30 days): Unchanged
Purity % ([2]; 60° C., 30 days): 95.17%
Color, properties ([2]; 75% RH, 5 days): White solid
Crystal form ([2]; 75% RH, 5 days): Unchanged
Purity % ([2]; 75% RH, 5 days): 99.11%
Color, properties ([2]; 75% RH, 10 days): White solid
Crystal form ([2]; 75% RH, 10 days): Unchanged
Purity % ([2]; 75% RH, 10 days): 99.11%
Color, properties ([2]; 75% RH, 30 days): White solid
Crystal form ([2]; 75% RH, 30 days): Unchanged
Purity % ([2]; 75% RH, 30 days): 99.05%
Color, properties ([2]; 92.5% RH, 5 days): White solid
Crystal form ([2]; 92.5% RH, 5 days): Unchanged
Purity % ([2]; 92.5% RH, 5 days): 99.18%
Color, properties ([2]; 92.5% RH, 10 days): White solid
Crystal form ([2]; 92.5% RH, 10 days): Unchanged
Purity % ([2]; 92.5% RH, 10 days): 99.02%
Color, properties ([2]; 92.5% RH, 30 days): White solid
Crystal form ([2]; 92.5% RH, 30 days): Unchanged
Purity % ([2]; 92.5% RH, 30 days): 99.07%
Color, properties ([2]; Start, 0 days): White solid
Purity % ([2]; Start, 0 days): 99.09%
Hygroscopicity 0.0% RH-95.0% RH [3]: 4.55%
Hygroscopicity 20.0% RH-80.0% RH [3]: 1.59%
Crystal form [3]: Unchanged

CC(C)(C#Cc1nc(C(Cc2cc(F)cc(F)c2)NC(=O)Cn2nc(C(F)(F)F)c3c2C(F)(F)C2CC32)c(-c2ccc(Cl)c3c([N-]S(C)(=O)=O)nn(CC(F)(F)F)c23)c2c1CCC2)S(C)(=O)=O.[Na+] (centres unmarked) [Crystal form IV of the sodium salt]
Hygroscopicity 0.0% RH-95.0% RH [3]: 1.03%
Hygroscopicity 20.0% RH-80.0% RH [3]: 0.45%
Crystal form [3]: changed

CC(C)(C#Cc1nc(C(Cc2cc(F)cc(F)c2)NC(=O)Cn2nc(C(F)(F)F)c3c2C(F)(F)C2CC32)c(-c2ccc(Cl)c3c([N-]S(C)(=O)=O)nn(CC(F)(F)F)c23)c2c1CCC2)S(C)(=O)=O.[Na+] (centres unmarked) [Crystal form III of the sodium salt]
Purity % ([1]; 4° C., 1 month): 98.25%
Purity % ([1]; 4° C., 2 months): 98.26%
Purity % ([1]; 4° C., 3 months): 98.24%
Purity % ([1]; 4° C., 6 months): 98.28%
Purity % ([1]; 4° C., Start): 98.32%
physical and chemical stability (conclusion) [1]: good physical and chemical stability
physical and chemical stability (conclusion) ([2]; 40° C., 60° C., 75% RH and 92.5% RH): good physical and chemical stability
Color, properties ([2]; 40° C., 5 days): White solid
Crystal form ([2]; 40° C., 5 days): Unchanged
Purity % ([2]; 40° C., 5 days): 97.98%
Color, properties ([2]; 40° C., 10 days): White solid
Crystal form ([2]; 40° C., 10 days): Unchanged
Purity % ([2]; 40° C., 10 days): 98.10%
Color, properties ([2]; 40° C., 30 days): White solid
Crystal form ([2]; 40° C., 30 days): Unchanged
Purity % ([2]; 40° C., 30 days): 98.06%
Color, properties ([2]; 60° C., 5 days): White solid
Crystal form ([2]; 60° C., 5 days): Unchanged
Purity % ([2]; 60° C., 5 days): 98.05%
Color, properties ([2]; 60° C., 10 days): White solid
Crystal form ([2]; 60° C., 10 days): Unchanged
Purity % ([2]; 60° C., 10 days): 98.08%
Color, properties ([2]; 60° C., 30 days): White solid
Crystal form ([2]; 60° C., 30 days): Unchanged
Purity % ([2]; 60° C., 30 days): 97.99%
Color, properties ([2]; 75% RH, 5 days): White solid
Crystal form ([2]; 75% RH, 5 days): Unchanged
Purity % ([2]; 75% RH, 5 days): 98.08%
Color, properties ([2]; 75% RH, 10 days): White solid
Crystal form ([2]; 75% RH, 10 days): Unchanged
Purity % ([2]; 75% RH, 10 days): 98.10%
Color, properties ([2]; 75% RH, 30 days): White solid
Crystal form ([2]; 75% RH, 30 days): Unchanged
Purity % ([2]; 75% RH, 30 days): 98.00%
Color, properties ([2]; 92.5% RH, 5 days): White solid
Crystal form ([2]; 92.5% RH, 5 days): Unchanged
Purity % ([2]; 92.5% RH, 5 days): 97.94%
Color, properties ([2]; 92.5% RH, 10 days): White solid
Crystal form ([2]; 92.5% RH, 10 days): Unchanged
Purity % ([2]; 92.5% RH, 10 days): 97.94%
Color, properties ([2]; 92.5% RH, 30 days): White solid
Crystal form ([2]; 92.5% RH, 30 days): Unchanged
Purity % ([2]; 92.5% RH, 30 days): 97.89%
Color, properties ([2]; Start, 0 days): White solid
Purity % ([2]; Start, 0 days): 98.23%
Hygroscopicity 0.0% RH-95.0% RH [3]: 2.04%
Hygroscopicity 20.0% RH-80.0% RH [3]: 0.73%
Crystal form [3]: Unchanged
